Literature values, collected in US12253532B2, “Mass spectrometric quantitation assay for metabolites of leflunomide” (Quest Diagnostics Investments LLC, priority 2010, dated 2025).
Where two headings read alike, the source gives them in different places.

Mean steady state plasma concentration of teriflunomide (patients on daily dosage of 5 mg leflunomide): about 8800 ng/mL
Mean steady state plasma concentration of teriflunomide (patients on daily dosage of 10 mg leflunomide): ~18,000 ng/mL
Mean steady state plasma concentration of teriflunomide (patients on daily dosage of 25 mg leflunomide): ~63,000 ng/mL
SMILES: CC(O)=C(C#N)C(=O)Nc1ccc(C(F)(F)F)cc1 [teriflunomide, 2-cyano-3-hydroxy-N-(4-trifluoromethylphenyl)-2-butenamide]
